Test results as given in patent publication US10370412B2, “Beta-hairpin peptidomimetics” (Polyphor AG, priority 2013, dated 2019).
Where a SMILES comes first, the peptide text is derived from it. [ ]: non-standard residue; d: D form. Pro(3S-OH) = O=C(O)[C@H]1NCC[C@@H]1O; Dap(CONH2) = NC(=O)NC[C@H](N)C(=O)O; Cha = N[C@@H](CC1CCCCC1)C(=O)O; Chg = N[C@H](C(=O)O)C1CCCCC1; Tle = CC(C)(C)[C@H](N)C(=O)O; dDab = NCC[C@@H](N)C(=O)O; hSer = N[C@@H](CCO)C(=O)O; Orn = NCCC[C@H](N)C(=O)O; Api = NC1(C(=O)O)CCNCC1; Dab = NCC[C@H](N)C(=O)O

Test system: human red blood cells (hRBC)
Format: cell-based
Conditions: red cells of human, 1 h
Description: The peptides were tested for their hemolytic activity against human red blood cells (hRBC). Fresh hRBC were washed three times with phosphate buffered saline (PBS) and centrifuged for 10 min at 2000×g. Compounds (100 μg/ml) were incubated with 20% hRBC (v/v) for 1 h at 37° C. and shaking at 300 rpm. The final erythrocyte concentration was approximately 0.9×10^9 cells/ml. A value of 0% and 100% cell lyses, respectively, was determined by incubation of hRBC in the presence of PBS containing 0.001% acetic acid and 2.5% Triton X-100 in H2O, respectively. The samples were centrifuged, the supernatants were 8-fold diluted in PBS buffer and the optical densities (OD) were measured at 540 nm. The 100% lyses value (OD540H2O) gave an OD540 of approximately 0.5-1.0. Percent hemolysis was calculated as follows: (OD540peptide/OD540H2O)×100%.

Compared with CC(C)C[C@@H]1NC(=O)[C@@H]2CCCN2C(=O)[C@H]2CCCN2C(=O)[C@H](CO)NC(=O)[C@H](C)NC(=O)[C@H](C(C)(C)C)NC(=O)[C@H](CCN)NC(=O)[C@H](Cc2c[nH]c3ccccc23)NC(=O)[C@H](CCN)NC(=O)[C@@H](CCN)NC(=O)[C@H](CCCN)NC(=O)[C@H](CCN)NC(=O)[C@H](Cc2ccc(O)cc2)NC(=O)[C@H](Cc2c[nH]c3ccccc23)NC1=O [compound 28, cyclo(-Leu-Trp-Tyr-Dab-Orn-^DDab-Dab-Trp-Dab-tBuGly-Ala-Ser-^DPro-Pro-)] (cyclo(LWY[Dab][Orn][dDab][Dab]W[Dab][Tle]AS[dP]P)), C[C@@H]1NC(=O)[C@H](C(C)(C)C)NC(=O)[C@H](CCN)NC(=O)[C@H](Cc2c[nH]c3ccccc23)NC(=O)[C@H](CCN)NC(=O)[C@H](CCN)NC(=O)[C@H](CCCN)NC(=O)[C@H](CCN)NC(=O)[C@H](Cc2ccc(O)cc2)NC(=O)[C@H](Cc2c[nH]cn2)NC(=O)[C@H](Cc2c[nH]c3ccccc23)NC(=O)[C@@H]2CCCN2C(=O)[C@H]2CCCN2C(=O)[C@H](CO)NC1=O [compound 18, cyclo(-Trp-His-Tyr-Dab-Orn-Dab-Dab-Trp-Dab-tBuGly-Ala-Ser-^DPro-Pro-)] (cyclo(WHY[Dab][Orn][Dab][Dab]W[Dab][Tle]AS[dP]P)) is lower in “Hemolysis at 100 μg/ml” value: 1% for the first, 0% for the second.

C[C@@H]1NC(=O)[C@H](C(C)(C)C)NC(=O)[C@H](CCO)NC(=O)[C@H](Cc2c[nH]c3ccccc23)NC(=O)[C@H](CCN)NC(=O)[C@@H](CCN)NC(=O)[C@H](CCCN)NC(=O)[C@H](CCN)NC(=O)[C@H](Cc2ccc(O)cc2)NC(=O)[C@H](Cc2c[nH]cn2)NC(=O)[C@H](Cc2c[nH]c3ccccc23)NC(=O)[C@@H]2CCCN2C(=O)[C@H]2CCCN2C(=O)[C@H](CO)NC1=O [Ex. 1, cyclo(-Trp-His-Tyr-Dab-Orn-^DDab-Dab-Trp-Hse-tBuGly-Ala-Ser-^DPro-Pro-)] (cyclo(WHY[Dab][Orn][dDab][Dab]W[hSer][Tle]AS[dP]P)) and CC(C)C[C@@H]1NC(=O)[C@@H]2CCCN2C(=O)[C@H]2CCCN2C(=O)[C@H](CO)NC(=O)[C@H](C)NC(=O)[C@H](C(C)(C)C)NC(=O)[C@H](CCN)NC(=O)[C@H](Cc2c[nH]c3ccccc23)NC(=O)[C@H](CCN)NC(=O)[C@@H](CCN)NC(=O)[C@H](CCCN)NC(=O)[C@H](CCN)NC(=O)[C@H](Cc2c[nH]c3ccccc23)NC(=O)[C@H](Cc2c[nH]cn2)NC1=O [compound 24, cyclo(-Leu-His-Trp-Dab-Orn-^DDab-Dab-Trp-Dab-tBuGly-Ala-Ser-^DPro-Pro-)] (cyclo(LHW[Dab][Orn][dDab][Dab]W[Dab][Tle]AS[dP]P)) are the same in “Hemolysis at 100 μg/ml” value: 1% for the first, 1% for the second.

First: CC(C)(C)[C@@H]1NC(=O)[C@H](CCN)NC(=O)[C@H](Cc2c[nH]c3ccccc23)NC(=O)[C@H](CCN)NC(=O)C2(CCNCC2)NC(=O)[C@H](CCCN)NC(=O)[C@H](CCN)NC(=O)[C@H](CC2CCCCC2)NC(=O)[C@H](Cc2c[nH]cn2)NC(=O)[C@H](Cc2c[nH]c3ccccc23)NC(=O)[C@@H]2[C@@H](O)CCN2C(=O)[C@H]2CCCN2C(=O)[C@H](CO)NC(=O)[C@H](CO)NC1=O [Ex. 14, cyclo(-Trp-His-Cha-Dab-Orn-Pip-Dab-Trp-Dab-tBuGly-Ser-Ser-^DPro-Pro((3S)OH)—)] (cyclo(WH[Cha][Dab][Orn][Api][Dab]W[Dab][Tle]SS[dP][Pro(3S-OH)]))
Second: CC(C)[C@@H]1NC(=O)[C@H](C(C)(C)C)NC(=O)[C@H](CCN)NC(=O)[C@H](Cc2c[nH]c3ccccc23)NC(=O)[C@H](CCN)NC(=O)[C@@H](CCN)NC(=O)[C@H](CCCN)NC(=O)[C@H](CCN)NC(=O)[C@H](CC2CCCCC2)NC(=O)[C@H](Cc2c[nH]cn2)NC(=O)[C@H](Cc2c[nH]c3ccccc23)NC(=O)[C@@H]2CCCN2C(=O)[C@H]2CCCN2C(=O)[C@H](CO)NC1=O [compound 4, cyclo(-Trp-His-Cha-Dab-Orn-^DDab-Dab-Trp-Dab-tBuGly-Val-Ser-^DPro-Pro-)] (cyclo(WH[Cha][Dab][Orn][dDab][Dab]W[Dab][Tle]VS[dP]P))
The “Hemolysis at 100 μg/ml” value of the first is lower: 4% for the first, 5% for the second.

Compared with CC(C)(C)[C@@H]1NC(=O)[C@H](CCN)NC(=O)[C@H](Cc2c[nH]c3ccccc23)NC(=O)[C@H](CCN)NC(=O)[C@@H](CCN)NC(=O)[C@H](CCCN)NC(=O)[C@H](CCN)NC(=O)[C@H](CC2CCCCC2)NC(=O)[C@H](Cc2c[nH]c3ccccc23)NC(=O)[C@H](Cc2c[nH]c3ccccc23)NC(=O)[C@@H]2[C@@H](O)CCN2C(=O)[C@H]2CCCN2C(=O)[C@H](CO)NC(=O)[C@H](CO)NC1=O [Ex. 15, cyclo(-Trp-Trp-Cha-Dab-Orn-^DDab-Dab-Trp-Dab-tBuGly-Ser-Ser-^DPro-Pro((3S)OH)—)] (cyclo(WW[Cha][Dab][Orn][dDab][Dab]W[Dab][Tle]SS[dP][Pro(3S-OH)])), C[C@@H]1NC(=O)[C@H](C(C)(C)C)NC(=O)[C@H](CCN)NC(=O)[C@H](Cc2c[nH]c3ccccc23)NC(=O)[C@H](CCN)NC(=O)[C@@H](CCN)NC(=O)[C@H](CCCCN)NC(=O)[C@H](CCN)NC(=O)[C@H](CC2CCCCC2)NC(=O)[C@H](Cc2c[nH]c3ccccc23)NC(=O)[C@H](Cc2c[nH]c3ccccc23)NC(=O)[C@@H]2CCCN2C(=O)[C@H]2CCCN2C(=O)[C@H](CO)NC1=O [Ex. 11, cyclo(-Trp-Trp-Cha-Dab-Lys-^DDab-Dab-Trp-Dab-tBuGly-Ala-Ser-^DPro-Pro-)] (cyclo(WW[Cha][Dab]K[dDab][Dab]W[Dab][Tle]AS[dP]P)) is higher in “Hemolysis at 100 μg/ml” value: 0% for the first, 1% for the second.

Compared with CC(C)C[C@@H]1NC(=O)[C@@H]2CCCN2C(=O)[C@H]2CCCN2C(=O)[C@H](CO)NC(=O)[C@H](C)NC(=O)[C@H](C2CCCCC2)NC(=O)[C@H](CCN)NC(=O)[C@H](Cc2c[nH]c3ccccc23)NC(=O)[C@H](CCN)NC(=O)[C@@H](CCN)NC(=O)[C@H](CCCN)NC(=O)[C@H](CCN)NC(=O)[C@H](Cc2ccc(O)cc2)NC(=O)[C@H](Cc2c[nH]cn2)NC1=O [compound 23, cyclo(-Leu-His-Tyr-Dab-Orn-^DDab-Dab-Trp-Dab-Chg-Ala-Ser-^DPro-Pro-)] (cyclo(LHY[Dab][Orn][dDab][Dab]W[Dab][Chg]AS[dP]P)), CC(C)C[C@@H]1NC(=O)[C@@H]2CCCN2C(=O)[C@H]2CCCN2C(=O)[C@H](CO)NC(=O)[C@H](C)NC(=O)[C@H](C(C)(C)C)NC(=O)[C@H](CCN)NC(=O)[C@H](Cc2c[nH]c3ccccc23)NC(=O)[C@H](CCN)NC(=O)[C@@H](CCN)NC(=O)[C@H](CCCCN)NC(=O)[C@H](CCN)NC(=O)[C@H](Cc2ccc(O)cc2)NC(=O)[C@H](Cc2c[nH]cn2)NC1=O [compound 25, cyclo(-Leu-His-Tyr-Dab-Lys-^DDab-Dab-Trp-Dab-tBuGly-Ala-Ser-^DPro-Pro-)] (cyclo(LHY[Dab]K[dDab][Dab]W[Dab][Tle]AS[dP]P)) is lower in “Hemolysis at 100 μg/ml” value: 3% for the first, 0% for the second.

First: CC(C)C[C@@H]1NC(=O)[C@@H]2CCCN2C(=O)[C@H]2CCCN2C(=O)[C@H](CO)NC(=O)[C@H](CNC(N)=O)NC(=O)[C@H](C(C)(C)C)NC(=O)[C@H](CCN)NC(=O)[C@H](Cc2c[nH]c3ccccc23)NC(=O)[C@H](CCN)NC(=O)C2(CCNCC2)NC(=O)[C@H](CCCN)NC(=O)[C@H](CCN)NC(=O)[C@H](CC2CCCCC2)NC(=O)[C@H](Cc2c[nH]cn2)NC1=O [compound 6, cyclo(-Leu-His-Cha-Dab-Orn-Pip-Dab-Trp-Dab-tBuGly-Alb-Ser-^DPro-Pro-)] (cyclo(LH[Cha][Dab][Orn][Api][Dab]W[Dab][Tle][Dap(CONH2)]S[dP]P))
Second: CC(C)[C@@H]1NC(=O)[C@@H]2CCCN2C(=O)[C@H]2CCCN2C(=O)[C@H](CO)NC(=O)[C@H](C)NC(=O)[C@H](C(C)(C)C)NC(=O)[C@H](CCN)NC(=O)[C@H](Cc2c[nH]c3ccccc23)NC(=O)[C@H](CCN)NC(=O)[C@@H](CCN)NC(=O)[C@H](CCCN)NC(=O)[C@H](CCN)NC(=O)[C@H](Cc2ccc(O)cc2)NC(=O)[C@H](Cc2c[nH]cn2)NC1=O [compound 7, cyclo(-Val-His-Tyr-Dab-Orn-^DDab-Dab-Trp-Dab-tBuGly-Ala-Ser-^DPro-Pro-)] (cyclo(VHY[Dab][Orn][dDab][Dab]W[Dab][Tle]AS[dP]P))
The “Hemolysis at 100 μg/ml” value of the first is higher: 3% for the first, 1% for the second.

Going from CC(C)C[C@@H]1NC(=O)[C@@H]2CCCN2C(=O)[C@H]2CCCN2C(=O)[C@H](CO)NC(=O)[C@H](CC(N)=O)NC(=O)[C@H](C(C)(C)C)NC(=O)[C@H](CCN)NC(=O)[C@H](Cc2c[nH]c3ccccc23)NC(=O)[C@H](CCN)NC(=O)[C@@H](CCN)NC(=O)[C@H](CCCN)NC(=O)[C@H](CCN)NC(=O)[C@H](Cc2ccc(O)cc2)NC(=O)[C@H](Cc2ccc(O)cc2)NC1=O [compound 33, cyclo(-Leu-Tyr-Tyr-Dab-Orn-^DDab-Dab-Trp-Dab-tBuGly-Asn-Ser-^DPro-Pro-)] (cyclo(LYY[Dab][Orn][dDab][Dab]W[Dab][Tle]NS[dP]P)) to CC(C)C[C@@H]1NC(=O)[C@@H]2CCCN2C(=O)[C@H]2CCCN2C(=O)[C@H](CO)NC(=O)[C@H](CO)NC(=O)[C@H](CC2CCCCC2)NC(=O)[C@H](CCN)NC(=O)[C@H](Cc2c[nH]c3ccccc23)NC(=O)[C@H](CCN)NC(=O)[C@@H](CCN)NC(=O)[C@H](CCCCN)NC(=O)[C@H](CCN)NC(=O)[C@H](Cc2ccc(O)cc2)NC(=O)[C@H](Cc2c[nH]c3ccccc23)NC1=O [compound 31, cyclo(-Leu-Trp-Tyr-Dab-Lys-^DDab-Dab-Trp-Dab-Cha-Ser-Ser-^DPro-Pro-)] (cyclo(LWY[Dab]K[dDab][Dab]W[Dab][Cha]SS[dP]P)), the “Hemolysis at 100 μg/ml” value falls from 5% to 1%.
